Source: patent US9238034B2, “FN14 antagonists and therapeutic uses thereof” (THE TRANSLATIONAL GENOMICS RESEARCH INSTITUTE, priority 2013, dated 2016)

T1: Fn14 (Homo sapiens, UniProt Q9NP84)
T1 construct: the human Fc fragment-tagged Fn14 extracellular domain (R&D Systems) was captured
T1 sequence (Q9NP84 28-80 limits assumed): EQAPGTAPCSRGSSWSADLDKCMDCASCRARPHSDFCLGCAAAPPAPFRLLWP

T2: TWEAK (Homo sapiens, UniProt O43508)
T2 sequence (O43508 94-249 limits assumed): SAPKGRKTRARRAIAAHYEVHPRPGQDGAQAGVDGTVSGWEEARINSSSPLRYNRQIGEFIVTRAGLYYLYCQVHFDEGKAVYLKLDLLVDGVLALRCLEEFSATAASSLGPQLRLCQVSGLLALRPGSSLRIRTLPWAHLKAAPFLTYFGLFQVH


Assays:
[1] = test system: TWEAK-Fn14 signaling pathway; test: TWEAK induced Fn14-NF-κB Luc assay, optimized 384-well HTS format; type: cell-based, human; settings: 1000 cells/well, 40 ng/mL TWEAK 8 hr, 1 hr pre-incubation
From the text: Human embryonic kidney cells (HEK293) express low levels of the Fn14 receptor. We developed a cell-based assay for the Fn14-TWEAK pathway signaling events using HEK293 cells that stably co-expresses high levels of full length Fn14 receptor and a firefly luciferase reporter driven by NF-KB-response elements (Fn14-NF-KB-Luc).
We optimized HEK293 Fn14-NF-KB Luc cell line for HTS by testing TWEAK-stimulated Luc-reporting as a function of growth medium, TWEAK concentration, induction time, assay duration, cell density, and DMSO concentration. For example, we seeded HEK293 Fn14-NF-KB-Luc and control cells (HEK293 NFKB-Luc) into a 96-well plate at a density of 10,000 cells/well, in DMEM or Opti-MEM® (Reduced serum media, protein concentration 15 μg/mL) and incubated at 37 C for 24 or 48 h. We then induced them with various concentrations of TWEAK in buffer or buffer alone (PBS+1 mg/mL BSA) for 5 hr and then measured firefly luciferase levels by chemiluminescence (Bright-Glo™ Promega). […] These initial conditions formed the basis for transfer of the assay into a 384-well format and further optimization with respect to cell seeding density, induction time, and TWEAK concentration.
We achieved the same conclusion from both 96-well and 384-well format that signal-to-background and fold-inductions are increased with increasing TWEAK concentration, peaking between 40-80 ng/mL and decreased at 100 ng/mL (FIGS. 20A and 20B). […] These conditions were further refined with respect to cell density (500-2500 cells per well), induction time (4-8 hr), and two TWEAK concentrations over a series of experiments in 384-well formats.
In the majority of seeding density conditions and two different TWEAK concentrations, the assay performance improved with increasing TWEAK induction time. At 8 hours of TWEAK stimulation, the fold induction (S/B) and Z′ factor was approximately 8-fold and 0.8, respectively, and the average % CV was 6.8%. […]

TNFα induction of NF-κB = test: TNFα induced counterscreen assay, HEK293 NF-κB Luc cells; type: cell-based, human
From the text: TNFα induction of the HEK293 NF-κB cell line was used as a counterscreen. […] Furthermore, we tested the two control compounds, LY294002 and BAY11-7082, in a drug dose-response format. […] We anticipate that compounds that directly affect Fn14 oligomerization, TWEAK ligation, or signaling proteins specific to the TWEAK-Fn14 signaling pathway that drive NF-κB activation will show minimal activity in the TNFα counterscreen assay. In order to eliminate the false positive hits from the pilot screen, we further performed the counterscreen by testing 35 “positives” from the Prestwick collection against HEK293 NF-KB-Luc control cell lines induced by TNFα. From this experiment we eliminated 28 compounds that inhibited luciferase expression after TNFα induction of HEK293 NF-KB Luc cells. Thus, after counterscreen only 7 compounds appeared to be specific inhibitors to the TWEAK-Fn14 signaling pathway. […] Overall, through our pilot primary screen and counterscreen, our hit rate approached 0.6% for this targeted collection. We expect a random collection to yield a lower hit-rate, which will be further reduced through the chemoinformatic filtering for luciferase false positive artifacts. Furthermore, secondary assays will be critical as cytotoxic false positives appeared to be about 80% from our pilot screen. […]

Fn14 = target: T1, Fn14; test: Surface Plasmon Resonance assay, Fn14-Fc sensor surface; type: binding; settings: SPR, 0 to 50 μM
Procedure: (§1) Surface Plasmon Resonance (SPR) Assay. The binding affinity of at least one of the compounds (e.g., L524-0366) to TWEAK and Fn14-Fx was determined using a BIAcore T100 optical biosensor (GE Healthcare) at 25 degrees Celsius at the Arizona Proteomics Consortium. Recombinant human TWEAK (20 μg/mL in 10 mM HEPES pH 7.4, 150 mM NaCl, 3 mM EDTA, 0.05% Tween 20) or recombinant human Fn14-Fc (20 μg/mL in 10 mM NaOAc pH 4.0) were covalently coupled to separate flow cells on a BIAcore CM5 sensor chip using standard amine coupling chemistry as per manufacturer's protocol. Final immobilization levels were 6000 Response Units (RU) for TWEAK and 13,000 RU for FN14-Fc. The first flow path of the chip was treated with the same coupling and blocking reagents without protein and was used as a reference for each binding cycle. Functionality of the TWEAK and the Fn14-Fc sensor surfaces were verified by injecting Fn14-Fc and TWEAK over them respectively. Serial dilutions of L524-0366 or cycloheximide (control) from 0 to 50 μM were made in running buffer (10 mM HEPES pH 7.4, 150 mM NaCl, 3 mM EDTA, 1% DMSO). […] Equilibrium dissociation constants for the small molecules were calculated by fitting the double reference subtracted data to Req=((CRmax)/(KD+C))+RI, where RI is the bulk refractive index contribution.

TWEAK = target: T2, TWEAK; test: Surface Plasmon Resonance assay, TWEAK sensor surface; type: binding; settings: SPR, 0 to 50 μM
Procedure: as §1

Fn14 signaling [2] = test: NF-κB luciferase reporter assay with sTWEAK variants, HEK293 NF-κB luciferase cells overexpressing full length Fn14; type: cell-based, human; settings: HEK293 NF-κB luciferase cells stably overexpressing full length Fn14, 5 hr
Procedure: (§2) NF-κB luciferase reporter Assay. The capacity of sTWEAK or sTWEAK variants to activate Fn14 signaling was evaluated using engineered reporter cell lines that express luciferase upon NF-κB activation. Two reporter cell lines were utilized for these experiments. HEK293 NF-κB luciferase (courtesy of Dr. Jeff Winkles) were generated by transfecting HEK293 cells with a reporter plasmid containing 5 copies of a consensus NF-κB binding site upstream of a minimal CMV promoter driving expression of firefly luciferase. The second cell line, designated HEK293 NF-κB luciferase Fn14 FL, was generated by stably transfecting the HEK293 NF-κB luciferase cell line with full length Fn14. To assay the binding of sTWEAK or sTWEAK variants to Fn14, reporter cells were seeded in tissue culture treated white 96-well plates at 1×10^4 cells/well in 80 μL Opti-MEM media (Invitrogen) and incubated for 48 hr at 37° C. After 48 hr incubation, 20 μL of 5× purified recombinant TWEAK (Peprotech Inc.; 150 ng/mL) in 1 mg/mL BSA in PBS was added to each well and incubated for 5 hr at 37° C. as positive control. Similarly, equivalent amounts of sTWEAK or sTWEAK variant prepared via IVTTas determined using ELISA assay described above was added in 20 μl. […] At the end of 5 hr incubation, the luminescent signal was determined using Bright-Glo assay kit (Promega, Madison, Wis.) according to the manufacturer's instructions.

Fn14 signaling [3] = test: NF-κB luciferase reporter assay with sTWEAK variants, HEK293 NF-κB luciferase cells; type: cell-based, human; settings: 5 hr
Procedure: as §2

| Molecule | effect on TWEAK induced Fn14-NF-κB Luc signal [1] | induction of luciferase expression less relative to cells stimulated with sTWEAK (Fn14 signaling [2]) [%] | luciferase expression less than cells stimulated with sTWEAK (Fn14 signaling [3]) [%] | further results |
| --- | --- | --- | --- | --- |
| Cc1ccc(S(=O)(=O)/C=C/C#N)cc1 [BAY11-7082] | dose-dependent manner | – | – | drug inhibition of TNFα activation, Fn14 versus control cell lines (TNFα induction of NF-κB; drug dose-response format, 40 ng/ml TNFα): no significant difference |
| C[C@@H]1C[C@H]2[C@@H]3CCC4=CC(=O)C=C[C@]4(C)[C@@]3(F)[C@@H](O)C[C@]2(C)[C@@]1(O)C(=O)CO [Dexamethasone, dexamethasone] | no effect | – | – | – |
| CC(C(=O)O)c1ccc(N2Cc3ccccc3C2=O)cc1 (centres unmarked) [Indoprofen] | drug sensitivity in a dose-dependent manner | – | – | effect in NF-KB Luc cells induced with TNFα (TNFα induction of NF-κB; 10 μM, TNFα 40 ng/mL for 8 hours): no significant effect |
| C[C@@H]1C[C@@H]([C@H](O)CC2CC(=O)NC(=O)C2)C(=O)[C@@H](C)C1 [cycloheximide, reference compound] | – | – | – | binding to Fn14 (Fn14): did not show significant binding; binding to TWEAK (TWEAK): did not show significant binding |
| sTWEAK Y176A: soluble form of TWEAK (amino acids K97-H249) with Y176A substitution, made by IVTT (protein, UniProt O43508 97-249, looked up, variant Y176A) KGRKTRARRAIAAHYEVHPRPGQDGAQAGVDGTVSGWEEARINSSSPLRYNRQIGEFIVTRAGLYYLYCQVHFDEGKAVALKLDLLVDGVLALRCLEEFSATAASSLGPQLRLCQVSGLLALRPGSSLRIRTLPWAHLKAAPFLTYFGLFQVH | – | 98 | 87 | – |
| sTWEAK Y176F: soluble form of TWEAK (amino acids K97-H249) with Y176F substitution, made by IVTT (protein, UniProt O43508 97-249, looked up, variant Y176F) KGRKTRARRAIAAHYEVHPRPGQDGAQAGVDGTVSGWEEARINSSSPLRYNRQIGEFIVTRAGLYYLYCQVHFDEGKAVFLKLDLLVDGVLALRCLEEFSATAASSLGPQLRLCQVSGLLALRPGSSLRIRTLPWAHLKAAPFLTYFGLFQVH | – | 98 | 100 | – |
